Consider eight compounds from ChEMBL document CHEMBL1201862, “PubChem BioAssay data set” (2004).

Among the test systems are IGROV-1; OVCAR-5; A498; UACC-257; SNB-75; 786-0; ACHN; NCI-H23; LOX IMVI; RXF 393; OVCAR-8; SF-268; M14; MDA-MB-231; U-251; NCI-H522; NCI-H460; SW-620; NCI-H226; HOP-92.
Common to all, as to test: growth of human tumour cells (NCI), 48 h

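Results reflect a 48-hour exposure of cells in 96-well plates to compound at five concentrations. The concentration for 50% growth inhibition is given as GI50.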 The source made the active and inactive calls. Cut-off read from the data, not from the text of the source: active = GI50 up to about 1.1 µM and inactive = higher. Bounds are passed on as bounds.

Take `O=C1C=CC(=O)c2c(O)nc(CBr)nc21`: the GI50 was > 100 µM (inactive) in the assay with IGROV-1; > 100 µM (inactive) with OVCAR-5; 82.6 µM (inactive) in the assay with A498; > 100 µM (inactive) with UACC-257; > 100 µM (inactive) in the assay on SNB-75; > 100 µM (inactive) in the assay on 786-0. Further, the GI50 in the assay on ACHN is > 100 µM (inactive); in the assay with NCI-H23, 80.5 µM (inactive); in the assay on LOX IMVI, > 100 µM (inactive); with RXF 393, > 100 µM (inactive); in the assay with OVCAR-8 it was > 100 µM (inactive); with SF-268, > 100 µM (inactive). Moreover, the GI50 was 61.5 µM (inactive) in the assay with M14, 61 µM (inactive) with MDA-MB-231, 95.9 µM (inactive) in the assay on U-251 and > 100 µM (inactive) in the assay with NCI-H522.
`O=C(OC(=C(c1ccccc1)c1ccccc1)N1CCCC1=S)C(c1ccccc1)c1ccccc1`: the GI50 in the assay on IGROV-1 is > 10 µM (inactive); with OVCAR-5 it was > 10 µM (inactive); with A498 it was 8.63 µM (inactive); with UACC-257, > 10 µM (inactive); with SNB-75, 4.91 µM (inactive); with 786-0, > 10 µM (inactive). Besides, the GI50 with ACHN was 5.07 µM (inactive); in the assay on NCI-H460, 3.58 µM (inactive); in the assay with NCI-H23 it was 4.23 µM (inactive); in the assay with LOX IMVI, 3.17 µM (inactive); in the assay with RXF 393 it was > 10 µM (inactive); with OVCAR-8 it was 7.96 µM (inactive). The GI50 with SF-268 was > 10 µM (inactive); in the assay on M14, > 10 µM (inactive); in the assay with SW-620, > 10 µM (inactive); in the assay with MDA-MB-231 it was 7.82 µM (inactive); in the assay with NCI-H226 it was 4.78 µM (inactive); in the assay on U-251 it was 6.32 µM (inactive).
Take `CN(C)C(=O)/N=c1\ss/c(=N\C(=S)N(C)C)n1-c1ccccc1`: the GI50 in the assay with IGROV-1 is 29.4 µM (inactive); in the assay on OVCAR-5, > 90.2 µM (inactive); with A498, 56.8 µM (inactive); in the assay with UACC-257, 15.5 µM (inactive); in the assay with SNB-75, 13.8 µM (inactive); in the assay on 786-0 it was 19.6 µM (inactive). In addition, the GI50 with ACHN is 23 µM (inactive); with NCI-H460, 17 µM (inactive); in the assay with NCI-H23 it was 18.7 µM (inactive); in the assay with LOX IMVI, 3.53 µM (inactive); with RXF 393, 38.4 µM (inactive); with OVCAR-8 it was 20.9 µM (inactive). Moreover, the GI50 in the assay with SF-268 is 25.6 µM (inactive); with M14, 20 µM (inactive); in the assay with SW-620 it was 28.3 µM (inactive); in the assay with NCI-H226 it was 27.2 µM (inactive); in the assay with U-251, 27 µM (inactive); in the assay on NCI-H522, < 0.01 µM (active). Moreover, the GI50 with HOP-92 was > 51.4 µM (inactive).
As for `C[n+]1c2ccccc2c(/C=N\NS(=O)(=O)c2ccc(Cl)cc2)c2ccccc21`, the GI50 with IGROV-1 is 43 µM (inactive); in the assay with OVCAR-5 it was 97.7 µM (inactive); in the assay with A498, 35.6 µM (inactive); in the assay on UACC-257, > 100 µM (inactive); with SNB-75, 39.4 µM (inactive); in the assay with 786-0, 51.9 µM (inactive). Besides, the GI50 was 68.2 µM (inactive) with ACHN; 32.4 µM (inactive) in the assay with NCI-H460; > 100 µM (inactive) in the assay on NCI-H23; 16.8 µM (inactive) in the assay on LOX IMVI; 57.3 µM (inactive) with RXF 393; 40.3 µM (inactive) in the assay on OVCAR-8. In addition, the GI50 with SF-268 is 69.2 µM (inactive); with M14, 56.4 µM (inactive); with SW-620 it was 39.5 µM (inactive); in the assay on NCI-H226, 68.2 µM (inactive); in the assay with U-251 it was 45.8 µM (inactive); in the assay on NCI-H522 it was 46.8 µM (inactive). The GI50 in the assay with HOP-92 is 48.8 µM (inactive).
As for `CCC(=O)OC1CCn2c1nc1c2C(=O)C(C)=C(NC(C)=O)C1=O` (stereo not given), the GI50 in the assay with IGROV-1 is 2.19 µM (inactive); with OVCAR-5, 1.92 µM (inactive); in the assay on A498, 18.4 µM (inactive); with UACC-257, 1.69 µM (inactive); in the assay with SNB-75, 5.01 µM (inactive); in the assay on 786-0, 3.48 µM (inactive). Moreover, the GI50 is 3.59 µM (inactive) with ACHN; 3.22 µM (inactive) in the assay with NCI-H460; 1.76 µM (inactive) in the assay on NCI-H23; 1.37 µM (inactive) in the assay on LOX IMVI; 1.73 µM (inactive) in the assay on RXF 393; 0.641 µM (active) in the assay with OVCAR-8. In addition, the GI50 is 1.74 µM (inactive) with SF-268; 1.89 µM (inactive) in the assay on M14; 1.49 µM (inactive) in the assay with SW-620; 1.69 µM (inactive) in the assay with NCI-H226; 2.08 µM (inactive) in the assay on U-251; 1.54 µM (inactive) in the assay on NCI-H522. Besides, the GI50 with HOP-92 is 1.69 µM (inactive).
In the case of `O=C(O)c1cccc(CN2CCCCC2)c1`, the GI50 in the assay with IGROV-1, in the assay on OVCAR-5, in the assay with A498, in the assay with UACC-257, with 786-0 and in the assay on ACHN was > 100 µM (inactive) each time. Besides, the GI50 in the assay on NCI-H460, with NCI-H23, in the assay with LOX IMVI, in the assay with RXF 393, with OVCAR-8 and with SF-268 was > 100 µM (inactive) in each case. Besides, the GI50 with M14, in the assay on SW-620, in the assay on MDA-MB-231, in the assay on NCI-H226, in the assay with U-251 and with NCI-H522 was > 100 µM (inactive) in each case.
For the compound `N#Cc1ccccc1NC(=O)C(=O)C(C(=O)c1ccccc1-c1ccccc1)C1OC(=O)c2ccccc21` (stereo not given), the GI50 with IGROV-1 was 23.5 µM (inactive); with OVCAR-5 it was 17.8 µM (inactive); with A498, 25.4 µM (inactive); with UACC-257, 15.2 µM (inactive); in the assay with SNB-75, 14.6 µM (inactive); in the assay on 786-0, 14.8 µM (inactive). Further, the GI50 is 53.6 µM (inactive) in the assay on ACHN; 18.2 µM (inactive) in the assay on NCI-H460; 11.8 µM (inactive) with NCI-H23; 15 µM (inactive) in the assay on LOX IMVI; 11.6 µM (inactive) with RXF 393; 20.3 µM (inactive) in the assay with OVCAR-8. For the same compound, the GI50 is 14.3 µM (inactive) in the assay with SF-268; 15.4 µM (inactive) in the assay with M14; 29 µM (inactive) in the assay with SW-620; 2.58 µM (inactive) in the assay on NCI-H226; 11.7 µM (inactive) with U-251; 7.73 µM (inactive) in the assay with NCI-H522. Also, the GI50 with HOP-92 was 20 µM (inactive).
For `CN(C(=O)Cc1cc(Cl)c(Cl)cc1NC(=O)CCCN)[C@H]1CCCC[C@@H]1N1CCCC1`, the GI50 was > 100 µM (inactive) in the assay with IGROV-1; 37.8 µM (inactive) in the assay on OVCAR-5; 17.3 µM (inactive) in the assay with A498; 19.1 µM (inactive) in the assay on UACC-257; 19.5 µM (inactive) in the assay on 786-0; > 100 µM (inactive) with ACHN. Further, the GI50 in the assay on NCI-H23 was > 100 µM (inactive); in the assay with LOX IMVI, 18.6 µM (inactive); in the assay on RXF 393 it was 16.1 µM (inactive); with OVCAR-8, > 100 µM (inactive); in the assay on SF-268 it was 13.9 µM (inactive); with M14, 19 µM (inactive). In addition, the GI50 in the assay with SW-620 is 28.6 µM (inactive); in the assay with MDA-MB-231 it was 28.3 µM (inactive); in the assay on NCI-H226, 27 µM (inactive); with U-251 it was 19.3 µM (inactive); in the assay with NCI-H522, 15.8 µM (inactive).
